Results from patent US20260364101A1, “OLEUROPEIN IN THE MANAGEMENT OF CANCER” (FUNDACIÓN MIGUEL SERVET, priority 2023, published 2026).
Entries after “also recorded” stand apart in the source; their conditions may differ.

What was measured:
[1] = system: TAMCs; experiment: quantitative proteomics and Ingenuity Pathway Analysis of TAMCs (FIG. 2); assay type: cell-based, mouse
Experimental: (§1) Immunosuppressive myeloid cell subsets resembling tumor-infiltrating subsets (g-MDSCs, m-MDSCs and TAMs) were differentiated from mouse bone marrow following published procedures using conditioning medium produced by LLC tumor cells stably expressing GMCSF and MCSF cells. g- and m-MDSCs were purified using the myeloid-derived suppressor cell isolation kit (Miltenyi Biotec, Bergisch, Germany) according to manufacturer's recommendations. MDSCs and TAMs were seeded with 500 nM BML-275 or 50 μM oleuropein and incubated for seven days.
(§2) A unique proteomic experiment was carried out with five biological replicates per sample (m-MDSC, g-MDSC and TAM). Cells were homogenized in a lysis buffer containing 7 M urea, 2 M thiourea 50 mM DTT. The homogenates were spun down at 14000 g for 1 h at 15 °C. Before proteomic analysis, protein extracts were diluted with Laemmli sample buffer in 100 μL and loaded into a 0.75 mm thick polyacrylamide gel with a 4% stacking gel casted over a 12.5% resolving gel. The run was stopped as soon as the front entered 3 mm into the resolving gel so that the whole proteome became concentrated in the stacking/resolving gel interface. Bands were stained with Coomassie Brilliant Blue, excised from the gel and protein enzymatic cleavage was carried out with trypsin (Promega; 1:20, w/w) at 37 °C for 16 h as previously described. Purification and concentration of peptides was performed using C18 Zip Tip Solid Phase Extraction (Millipore).
(§3) Peptide mixtures were separated by reverse phase chromatography using an UltiMate 3000 UHLPC System (Thermo Scientific) fitted with an Aurora packed emitter column (lonopticks, 25 cm×75 μm ID, 1.6 μm C18). Samples were first loaded for desalting and concentration into an Acclaim PepMap column (ThermoFisher, 0.5 cm×300 μm ID, 5 μm C18) packed with the same chemistry as the separating column. Mobile phases were 100% water 0.1% formic acid (FA) (buffer A) and 100% Acetonitrile 0.1% FA (buffer B). Column gradient was developed in a 120 min two step gradient from 5% B to 20% B in 90 min and 20% B to 32% B in 30 min. Column was equilibrated in 95% B for 10 min and 5% B for 20 min. During the whole process, the precolumn was in line with the column and the flow maintained all along the gradient at 300 nl/min. The column temperature was maintained at 40 °C using an integrated column oven (PRSO-V2, Sonation, Biberach, Germany) and interfaced online with the Orbitrap Exploris 480 MS. Spray voltage were set to 2 kV, funnel RF level at 40, and heated capillary temperature at 300 °C. For DDA experiments full MS resolutions were set to […] at m/z 200 and full MS AGC target was set to Standard with an IT mode Auto. Mass range was set to 375-1500. AGC target value for fragment spectra was set to Standard with a resolution of 15,000 and 3 seconds for cycle time. The intensity threshold was kept at 8E3. Isolation width was set at 1.4 m/z. Normalized collision energy was set at 30%. All data were acquired in centroid mode using positive polarity and peptide match was set to off, and isotope exclusion was on.
(§4) Raw files were processed with MaxQuant v1.6.17.0 using the integrated Andromeda Search engine. All data were searched against a target/decoy version of the mouse Uniprot Reference Proteome with March 2021 release. First search peptide tolerance was set to 20 ppm, main search peptide tolerance was set to 4.5 ppm. Fragment mass tolerance was set to 20 ppm. Trypsin was specified as enzyme, […] carbamidomethylation of cysteine was specified as fixed modification and peptide N-terminal acetylation, oxidation of methionine, deamidation of asparagine and glutamine and pyro-glutamate formation from glutamine and glutamate were considered variable modifications with a total of two variable modifications per peptide. […]

[2] = system: MC38 cells; experiment: MC38 colorectal cancer mouse tumor model, with rechallenge; assay type: in vivo, C57BL/6 mice; settings: MC38 s.c.
Experimental: C57BL/6 female mice were subcutaneously (s.c) injected with […] LLC cells or 0.5×10^6 MC38 cells per animal. When tumor growth reached an average diameter of 3.5 mm (day 0), mice received 100 μg of anti-PD-1 mAb (RPMI-14, BioXCell) intraperitoneally (i.p) at days 0, 5, and 13. Control mice received the same volume of saline. For oleuropein, mice received 300 μg oleuropein at days-1, 2, 4, 6, and 8. As negative control, the same volume of saline was injected.
The efficacy of all treatments was evaluated every two days by measuring two perpendicular tumor measurements. The size was calculated using the formula: Size=Length x Width. Mice were humanely sacrificed when tumor size reached ~150 mm^2, or when tumor ulceration or evident discomfort were observed. For rechallenge experiments in the MC38 model, mice that rejected tumors were injected s.c. with 5×10^5 MC38 cells in the left flank three months after the first tumor inoculation. Naïve mice were included as controls and development of tumors was evaluated for two months.
Tumor measurements of in vivo experiments are represented as tumor diameter (mm^2) and plotted either as individual data points for one individual mouse or as mean±SD as indicated in the figure legends. Statistical analysis was performed using one way ANOVA test followed by a Sidak's multiple comparison test at 0.05 level of significance. For in vivo experiments, to compare multiple experimental groups, one-way ANOVA test and Tukey's multiple comparison test were used. Two-tailed Student's t test was applied to compare two experimental groups. Survival of tumor-bearing mice is represented by Kaplan-Meier plots and analyzed by log-rank test. The p values <0.05 were considered statistically significant.
The efficacy of oleuropein and oleuropein/PD-1 blockade combinations were also tested in a colorectal cancer model. To this end, MC38 cells were subcutaneously implanted in mice and allowed to grow until tumors reached a diameter of about […]. Then, oleuropein was administered intraperitoneally one day prior to anti-PD1 mAb injection. […]

[3] = system: m-MDSC; experiment: quantitative proteomics and Ingenuity Pathway Analysis of m-MDSC; assay type: cell-based, mouse
Experimental: as §1, §2, §3, §4

[4] = IPA, TAMCs, listed as Oleuropein

Q: How did the CD40 ([1]; IPA, TAMCs) turn out when `C/C=C1/[C@H](O[C@@H]2O[C@H](CO)[C@@H](O)[C@H](O)[C@H]2O)OC=C(C(=O)OC)[C@H]1CC(=O)OCCc1ccc(O)c(O)c1` [oleuropein] was run?
A: The CD40 was “down-regulated”.

Q: What about the “Fatty acid β-oxidation I signalling” value ([1]; IPA, TAMCs) of the same compound?
A: Its value is “up-regulated; also recorded: Regulated expression”.

Q: What about the IL-9 signalling ([1]; IPA, TAMCs) of the same compound?
A: The IL-9 signalling was “down-regulated”.

Q: And the LXR/RXR signalling ([1]; IPA, TAMCs)?
A: Its LXR/RXR signalling is “up-regulated; also recorded: Regulated expression”.

Q: And the RAN signalling ([1]; IPA, TAMCs)?
A: The RAN signalling was “down-regulated”.

Q: What about the TREM1 ([1]; IPA, TAMCs) of the same compound?
A: Its TREM1 is “inhibition; also recorded: inhibited”.

Q: And the “cyclic adenosine monophosphate (cAMP) pathway” value ([1]; IPA, TAMCs)?
A: The value was “inhibition; also recorded: inhibited”.

Q: And the estrogen signalling ([1]; IPA, TAMCs)?
A: Its estrogen signalling is “downregulated”.

Q: And the “global reprogramming of TAMCs / immunosuppressive pathways” value ([1]; IPA, TAMCs)?
A: The value was “major reprogramming of intracellular pathways; also recorded: reprograms the immunosuppressive properties of TAMCs; also recorded: major global reprogramming of TAMCs by deactivating immunosuppressive pathways”.

Q: What about the insulin signalling ([1]; IPA, TAMCs) of the same compound?
A: The insulin signalling was “downregulated”.

Q: And the “pathways regulating lipid metabolism (Sirtuin, polyamines, PPAR-a/RXR-a)” value ([1]; IPA, TAMCs)?
A: The value was “altered”.

Q: And the TREM1 [1, 4]?
A: The TREM1 was “reduced”.

Q: What about the “cyclic adenosine monophosphate (cAMP) pathway” value [1, 4] of the same compound?
A: Its value is “down-regulated”.

Q: What about the proteomic profile ([1]; oleuropein-treated vs untreated, FDR<1%) of the same compound?
A: Its proteomic profile is “distinct proteomic profiles”.

Q: And the cure rate ([2]; oleuropein 300 μg i.p.)?
A: The cure rate was 16%.

Q: What about the survival ([2]; oleuropein 300 μg i.p. and/or anti-PD-1 mAb 100 μg i.p.) of the same compound?
A: Its survival is “significant increase in survival”.

Q: And the tumor growth ([2]; oleuropein 300 μg i.p. or anti-PD-1 mAb 100 μg i.p.)?
A: The tumor growth was “significantly delayed the growth of MC38 tumors”.

Q: And the BAG2 signalling ([3]; IPA, m-MDSC)?
A: Its BAG2 signalling is “activated”.

Q: What about the EIF2 signalling ([3]; IPA, m-MDSC) of the same compound?
A: Its EIF2 signalling is “activated”.

Q: What about the FAT10 signalling ([3]; IPA, m-MDSC) of the same compound?
A: The FAT10 signalling was “down-modulated”.

Q: And the “NRF2-mediated oxidative stress response” value ([3]; IPA, m-MDSC)?
A: The value was “downregulated”.

Q: And the “granzyme A signalling” value ([3]; IPA, m-MDSC)?
A: The value was “activated”.

Q: And the “production of proinflammatory cytokines” value ([3]; IPA, m-MDSC)?
A: The value was “down-modulated”.

Q: And the sirtuin signalling ([3]; IPA, m-MDSC)?
A: Its sirtuin signalling is “activated”.

Q: And the “upstream regulator PTEN” value ([3]; IPA, m-MDSC)?
A: The value was “increase”.

Q: And the upstream regulator methylprednisolone ([3]; IPA, m-MDSC)?
A: Its upstream regulator methylprednisolone is “decrease”.

Q: And the “effect over m-MDSC intracellular regulatory pathways” value ([3]; m-MDSC)?
A: The value was “potent effect over m-MDSC intracellular regulatory pathways”.

Q: What about the proteins differentially regulated ([3]; m-MDSC treated with oleuropein, data not shown) of the same compound?
A: Its proteins differentially regulated is 912 proteins.
